Assays:
Parameters in all cases: species or system human
[1] = Magnetic microrheometry: viscoelasticity (log G*) of CF sputum; details: for decrease in log G* (before minus after exposure): 20 min (FIG. 4A); for log G* after treatment: 37° C., 20 minutes; for log G* after treatment / log G* before treatment: mean ± standard error; for decline in viscoelasticity (log G*): Trx (30 μM), TR (0.1 μM); for log G* before treatment: baseline, 4 samples
Experimental: Viscoelastic change in response to treatment was measured by means of a magnetic microrheometer as developed by King (King M., Magnetic microrheometer. In: Methods in Bronchial Mucology, edited by Braga P C, and Allegra L. New York: Raven Press, 1988, p. 73-83). An 80-120 μm steel sphere was placed in a 10 mg sputum sample. An electromagnet was used to oscillate this sphere, whose image was projected onto a pair of photocells via a microscope. […] G* was the mechanical impedance or vector sum of viscosity and elasticity. For Trx and NADPH dose response experiments, log G* at 10 rad/s was measured before any treatment (baseline), and then after 20 minute incubation with no treatment, diluent (H2O), or Trx with reducing system. All treatments were administered to the sample in a volume of H2O equal to 10% of total sample volume. One measurement was performed per aliquot of sample.
Magnetic microrheometry was performed to determine the effect of Trx and its reducing system on sputum viscosity. Measurements were performed on sputum samples before and after incubation with the Trx reducing system (Table 1) to determine the change in log G* (viscoelasticity).
In the experiment shown in FIG. […] Each column represents the mean±standard error for 4 samples (♦Statistically significant from H2O diluent value). […]

DNA in CF sputum = assay: Total DNA content of sputum gel and liquid phases by Hoechst assay; details: Trx (30 μM) + reducing system, 20 min, mean ± S.D., n=5 (FIG. 6)
Experimental: 275 μl of CF sputum was incubated with no treatment, 25 μl of H2O, or 25 μl of H2O containing Trx (30 μM)+TR (0.1 μM) and NADPH (2 mM). After 20 minute incubation at 37° C., 100 μl of H2O was added to each sample, followed by centrifugation (22,000×g) for 10 minutes. Resulting gel and liquid phases were separated and incubated with an equal volume of digestion solution consisting of 100 mM Tris Cl, 5 mM EDTA, 200 mM NaCl, 0.5% Tween 20, and 1 mg/ml proteinase K for 4 hours at 50° C. DNA was purified from liquid and gel phases by phenol/chloroform extraction and resuspended in 100 μl of TE buffer, pH 8.0. DNA concentrations were determined by Hoechst assay (Labarca and Paigen, Anal Biochem 102:344-352, 1980) using an F-2000 fluorometer (Hitachi, Schaumburg, Ill.) with an excitation wavelength of […] and an emission wavelength of 555 nm. Salmon testis DNA, dissolved in TE buffer, was used to establish the standard curve.
The presence of high amounts of extracellular DNA in CF airway secretions contributes to the excessive viscoelasticity of CF sputum. To evaluate what effect Trx has on the solubility of DNA in sputum, sputum samples (275 μl) were incubated with either no additions, diluent (H2O), or Trx (30 μM)+reducing system for 20 minutes, and then separated into gel (insoluble) and liquid (soluble) phases. […]

[2] = Compaction assay: percent liquid fraction of CF sputum; details: for percent liquid fraction: 20 min (FIG. 3A)
Experimental: CF sputum stored at −80° C. was thawed at room temperature and aliquoted into 1.5 ml Eppendorf centrifuge tubes at volumes of 275 μl using a positive displacement pipette (Rainin, Emeryville, Calif.). Sputum samples were subjected to either diluent (H2O), Trx+TR+NADPH, GSH+glutathione reductase+NADPH, dithiothreitol (DTT) or N-acetylcysteine treatment by the addition of 25 μl of H2O containing the appropriate molar concentration of each agent. After brief vortexing (˜1 second), sample tubes were loaded onto a microtube rotisserie (Barnstead, Dubuque, Iowa) and incubated at 37° C. for 20 minutes. Samples were then processed for compaction assay according to methodology originated by Daugherty et al. (Daugherty et al., Biomaterials 16:553-558, 1995). To perform the assay, the contents of each sample were loaded into 100 μl glass micro-capillary tubes (Fisher Scientific) that had been previously welded to 200 μl pipette tips in order to achieve a tight fit. Three modified capillary tubes were used to draw up >90% of each sputum sample. Capillary tubes were then removed from their pipette tip, sealed with clay, and centrifuged for 10 minutes in a hematocrit centrifuge (IEC, Needham Heights, Mass.), followed by measurement of the length in millimeters of the gel (solid) and aqueous (liquid) phases in each tube. The percent liquid fraction of each capillary tube was calculated by dividing aqueous phase length by total length (gel+aqueous)×100. The three measurements of the liquid fraction (%) derived from each sample were then averaged to generate a single value for each treatment condition.
Due to abnormal ion transport caused by defects in the CFTR gene, airway secretions in CF patients are often desiccated. As a consequence, purulent CF sputum is comprised largely of a rigid and nonflowing biopolymer matrix, often referred to as gel phase, and lesser amounts of soluble, liquid phase. To assess the effect of Trx on the ratios of these two phases in sputum, compaction assay measurements were performed. […] After 20 minute incubation, the liquid fraction of each sample was determined by compaction assay.
To examine the effect of NADPH, additional samples from different donors were treated with 30 μM Trx, 0.1 μM TR and either 0, 0.2, 0.6, 1.0 or 2 mM NADPH for 20 minutes.
To assess the reproducibility of compaction assay measurements, sputum samples from three different CF donors were separated into aliquots and frozen. Specifically, freshly isolated CF sputum from three different donors (A, B, C) was separated into 275 μl aliquots and frozen. […] Results obtained from three independent experiments performed on each donor sample were used to evaluate assay reproducibility. On three consecutive days, aliquots were thawed, and treated with water, Trx and its reducing system, dithiothreitol (DTT), or no treatment.
The effectiveness of Trx in liquefying sputum was compared with other monothiol and dithiol reducing agents. Sputum samples were aliquoted and treated with Trx or GSH for 20 minutes and percent liquid determined by compaction assay. Initial compaction assay experiments compared the potencies of the Trx and GSH reducing systems in liquefaction of sputum in the presence of equimolar concentrations of NADPH. […] The analysis of Trx and NAC efficacy also was determined after 20 minute incubation, but on a different set of sputum samples.

[3] = 10 μM Trx + 0.1 μM TR + 2 mM NADPH
[4] = 30 μM Trx + 0.1 μM TR + 2 mM NADPH

Substance: Trx: Lyophilized recombinant E. coli Trx from Promega; protein disulfide reductase, used with its reducing system (TR + NADPH)
- decrease in log G* (before minus after exposure) ([1]; 3 μM Trx + 0.1 μM TR + 2 mM NADPH): 0.26 log units
- log G* after treatment ([1]; 3 μM Trx + 0.1 μM TR and 2 μM NADPH): 3.11 ± 0.04
- decrease in log G* (before minus after exposure) [1, 3]: 0.39 log units
- log G* after treatment ([1]; 10 μM Trx + 0.1 μM TR and 2 μM NADPH): 2.94 ± 0.05
- decrease in log G* (before minus after exposure) [1, 4]: 0.65 log units
- log G* after treatment ([1]; 30 μM Trx + 0.1 μM TR and 2 μM NADPH): 2.63 ± 0.04
- sputum viscoelasticity ([1]; 20 minute treatment with 3, 10, or 30 μM Trx): significantly diminished
- decline in viscoelasticity (log G*) ([1]; 0.2 mM NADPH (FIG. 4B)): 0.16 log units
- decline in viscoelasticity (log G*) ([1]; 0.6 mM NADPH (FIG. 4B)): 0.26 log units
- decline in viscoelasticity (log G*) ([1]; 2 mM NADPH (FIG. 4B)): 0.39 log units
- log G* before treatment ([1]; aliquots for 3 μM Trx): 3.37 ± 0.06
- log G* before treatment ([1]; aliquots for 10 μM Trx): 3.33 ± 0.06
- log G* before treatment ([1]; aliquots for 30 μM Trx): 3.28 ± 0.04
- DNA content of gel (insoluble) phase (DNA in CF sputum): 0.55 ± 0.31 mg
- DNA content of liquid (soluble) phase (DNA in CF sputum): 0.57 ± 0.37 mg
- percent liquid fraction [2, 3]: 34.8±6.6%
- percent liquid fraction [2, 4]: 54.6±10.4%
- percentage of sputum present in the liquid phase ([2]; 30 μM Trx + 0.1 μM TR + 2 mM NADPH, 20 min, different donors (FIG. 1B)): 70.55±18.13%
- percentage of sputum present in the liquid phase ([2]; 30 μM Trx + 0.1 μM TR without NADPH, 20 min (FIG. 1B)): 2.9%±1.3
- percent liquid fraction ([2]; 60 μM Trx + 0.1 μM TR + 2 mM NADPH): 67.0±8.0%
- 3 day range of percent of sputum in the liquid state ([2]; donor B, 30 μM Trx with reducing system): 46-51%
- range of percent liquid values ([2]; donor C, 30 μM Trx with reducing system): 62-81%

From patent US9289471B2, “Product and process for liquefaction of mucus or sputum” (National Jewish Health, priority 2002, dated 2016)
